Assay results: article PMC9949698, “Visible-Light-Controlled Histone Deacetylase Inhibitors for Targeted Cancer Therapy” (Journal of Medicinal Chemistry, 2023)
Where two headings read alike, the source gives them in different places.

Legend:
[1] = cited from earlier work
[2] = UV–vis spectra and optimal isomerization wavelengths; assay type: physicochemical
Procedure: Ultraviolet–visible (UV–vis) spectra were recorded using a Tecan Spark 20M Multimode Microplate reader. Samples (200 μL of compound solution/well) were prepared at […] in DMSO. Samples were measured between 300 and 800 nm with 2 nm fixed intervals in 96-well transparent plates. Illumination at different wavelengths was performed for 2 min using 96-well LED array plates (LEDA Teleopto) placed below the samples. […] Potencies were measured using a Thorlabs PM100D power energy meter connected with a standard photodiode power sensor (S120VC).

human recombinant HDAC1 [3] = target: T1, human recombinant HDAC1 (Homo sapiens, UniProt Q13547); assay: Fluorogenic assay with human recombinant HDAC1, dark or illumination; assay type: biochemical; settings: for IC50: 1 h at room temperature (Table 2)
T1 construct: purchased BPS Bioscience
Procedure: To study the inhibition of HDAC enzymes by the compounds, we used a fluorogenic assay with human recombinant HDAC1.[32] The enzyme was incubated with an acetylated substrate and each inhibitor for 1 h at room temperature, under either dark or light conditions. We opted for illumination throughout the incubation period to maintain the maximum proportion of cis under light conditions. […] Then, the deacetylated substrate generated a fluorescent coumarin after incubation of the mixture with trypsin at 37 °C for 20 min.
Stock solutions of the compounds were diluted to 1 mM in DMSO and then heated to 60 or 80 °C to obtain solutions with the maximum amount of the trans isomer (dark). […] The 1 mM solutions were then serially diluted with HDAC buffer to 10 times the desired concentration, maintaining DMSO at 10%.
In control wells without the compound, inhibitor, or enzyme, HDAC buffer was added instead. […] Then, 50 μL of the stop solution was added and the plates were incubated at 37 °C for 20 min in the dark. Fluorescence was measured at a λem of 460 nm and a λex of 380 nm. Enzyme activity is expressed as a percentage with respect to the nontreated cells, after subtracting the blank (well with no enzyme and no compound).

HeLa cells = assay: HeLa cell viability, MTS assay, dark or preillumination; assay type: cell-based; settings: for IC50: Homo sapiens, HeLa
Procedure: We then proceeded to evaluate the effect of the compounds in a viability assay against HeLa cells.
HeLa, MCF7, and HT29 cells were maintained in adherent cultures in DMEM supplemented with 10% FBS. KG1 cells were maintained in a suspension culture in IMDM supplemented with 20% FBS.
Stock solutions of the compounds were heated to 60 or 80 °C to obtain solutions with the maximum amount of the trans isomer (dark). […] The solutions were then serially diluted with DMEM to give 20 times the desired final concentration, maintaining DMSO at 10%.
Cells were seeded in 96-well black flat bottom plates with a clear bottom at a density of 5 × 10^3 cells/well (HeLa) or 1 × 10^4 cells/well (MCF7, HT29, and KG1), in a volume of 95 μL.
Viability of HeLa, MCF7, and […] cells was determined with a CellTiter 96 assay (Promega), according to the manufacturer’s instructions. Briefly, 20 μL of CellTiter 96 reagent was added to each well, the plates were incubated at 37 °C for 2 h, and the absorbance at 490 nm was recorded. Viability is expressed as a percentage with respect to the nontreated cells.

human recombinant HDAC1 [4] = target: T1, human recombinant HDAC1; assay: Fluorogenic assay with human recombinant HDAC1, dark or illumination; assay type: biochemical; settings: enzyme incubated 6 h with or without preillumination, activity assessed every hour
[5] = E/Z composition under light or temperature conditions by HPLC; assay type: physicochemical; settings: HPLC at isosbestic point (310–338 nm)
[6] = UV–vis at 25–50 μM in DMSO, Teleopto plates (Table 1)

T1 sequence (Q13547 whole entry): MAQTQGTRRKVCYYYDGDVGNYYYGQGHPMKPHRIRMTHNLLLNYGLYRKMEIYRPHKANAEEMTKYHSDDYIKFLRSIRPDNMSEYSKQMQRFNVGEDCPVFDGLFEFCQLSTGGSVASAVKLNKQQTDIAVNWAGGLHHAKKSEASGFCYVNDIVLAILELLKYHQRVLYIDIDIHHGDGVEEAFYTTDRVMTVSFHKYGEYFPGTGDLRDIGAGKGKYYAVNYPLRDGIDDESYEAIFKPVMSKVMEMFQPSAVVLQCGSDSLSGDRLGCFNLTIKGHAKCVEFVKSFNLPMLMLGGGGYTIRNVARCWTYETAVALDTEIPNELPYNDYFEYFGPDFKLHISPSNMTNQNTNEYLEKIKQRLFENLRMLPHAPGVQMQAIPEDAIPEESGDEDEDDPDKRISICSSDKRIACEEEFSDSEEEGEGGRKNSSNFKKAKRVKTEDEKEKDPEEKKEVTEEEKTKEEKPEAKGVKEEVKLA

Q: With `COc1ccc(/N=N/c2ccc(/C=C/C(=O)NO)cc2)cc1` [Compound 1, reference compound] as the compound, how does the wavelength of isomerization [1] read?
A: Its wavelength of isomerization is 365 nm.

Q: What about the “t1/2 (relaxation)” value ([1]; room temperature in buffer) of the same compound?
A: Its value is 4.2 h.

Q: What about the “λcis (optimal wavelength trans to cis)” value [2, 6] of the same compound?
A: Its value is 380 nm.

Q: What about the “λtrans (optimal wavelength cis to trans)” value [2, 6] of the same compound?
A: Its value is 550 nm.

Q: What about the λmax trans ([2]; UV–vis spectra at 25–50 μM in DMSO (Table 1)) of the same compound?
A: Its λmax trans is 378 nm.

Q: What about the “IC50(dark)/IC50(light)” value (human recombinant HDAC1 [3]; dark vs 365 or 380 nm (Table 2), fold) of the same compound?
A: The value was 18.

Q: What about the IC50 (human recombinant HDAC1 [3]; dark, read-out: IC50 dark) of the same compound?
A: Its IC50 is 0.96 µM.

Q: What about the IC50 (human recombinant HDAC1 [3]; illumination 365 or 380 nm, read-out: IC50 light) of the same compound?
A: The IC50 was 0.052 µM.

Q: And the IC50 (HeLa cells; dark, 48 h, read-out: IC50 dark (concentration that reduces cell viability by half))?
A: The IC50 was about 12 µM.

Q: What about the IC50 (HeLa cells; preillumination 380 nm, 48 h, read-out: IC50 light (concentration that reduces cell viability by half)) of the same compound?
A: Its IC50 is about 12 µM.

Q: And the IC50 (HeLa cells; supplementary CSV, read-out: HeLa MTS IC50 dark)?
A: The IC50 was 12 µM.

Q: And the IC50 (HeLa cells; supplementary CSV, read-out: HeLa MTS IC50 light)?
A: Its IC50 is 12 µM.

Q: What about the “IC50(dark)/IC50(light)” value (HeLa cells; Table 5) of the same compound?
A: The value was “≈1”.

Q: And the “difference in activity between dark and illuminated conditions over incubation time” value (human recombinant HDAC1 [4])?
A: The value was “maintained over time”.

Q: What about the “% cis at λcis” value ([5]; 100 μM in DMSO after illumination with λcis (Table 1)) of the same compound?
A: Its value is 78%.

Q: What about the “% trans at λtrans” value ([5]; 100 μM in DMSO after illumination with λtrans (Table 1)) of the same compound?
A: The value was 85%.
